Test [1] addresses T1, SARS-CoV-2 M^Pro (Severe acute respiratory syndrome coronavirus 2, UniProt P0DTD1). The following applies: read-out: IC50 against M^Pro; previously published inhibitors; cited from earlier work.
Test [2] has as its target M^Pro-eGFP fusion protein transiently expressed in 293T cells (Severe acute respiratory syndrome coronavirus 2, UniProt P0DTD1). The format is cell-based, SARS-CoV-2. The conditions noted are these: read-out: Cellular EC50.
For test [3], the target named is T1, SARS-CoV-2 M^Pro. Briefly: In vitro M^Pro inhibition potency (enzymatic IC50, fluorogenic substrate Sub3). The conditions noted are these: 20 nM M^Pro, 10 μM Sub3, 30 min preincubation, pH 7.6. It is filed as biochemical.

Molecules are shown by their SMILES. Read-outs that look alike come from different tables or passages of the source. Bounds are passed on as bounds.

By IC50 is commonly meant the concentration needed to halve the response being measured. A word on the EC50: it is the concentration that produces a half-maximal response.

Turning to `CC(C)(C)C[C@H](NC(=O)OCc1ccccc1)C(=O)N[C@H](C=O)C[C@@H]1CCNC1=O` [MPI50], at SARS-CoV-2 M^Pro [1], the IC50 is 53 nM. `CC1(C)[C@@H]2[C@@H](C(=O)N[C@H](C=O)C[C@@H]3CCNC3=O)N(C(=O)OC(c3ccccc3)c3ccccc3)C[C@@H]21` [MPI94]: the EC50 in test [2] was 900 nM. Regarding `CC1(C)[C@@H]2[C@@H](C(=O)N[C@H](C=O)C[C@@H]3CCNC3=O)N(C(=O)OC(c3ccc(F)cc3)c3ccc(F)cc3)C[C@@H]21` [MPI95], in test [2], the EC50 came out at 910 nM. Turning to `CC1(C)[C@@H]2[C@@H](C(=O)N[C@H](C=O)C[C@@H]3CCNC3=O)N(C(=O)C(c3ccc(Cl)cc3)c3ccc(Cl)cc3)C[C@@H]21` [MPI96], in test [2], the EC50 is 2900 nM. Same read-out and setting: as for `CC1(C)[C@@H]2[C@@H](C(=O)N[C@H](C=O)C[C@@H]3CCNC3=O)N(C(=O)N(c3ccc(Cl)cc3)c3ccc(Cl)cc3)C[C@@H]21` [MPI97], the figure is 1100 nM; as for `CC1(C)[C@@H]2[C@@H](C(=O)N[C@H](C=O)C[C@@H]3CCNC3=O)N(C(=O)C(Oc3ccc(Cl)cc3)Oc3ccc(Cl)cc3)C[C@@H]21` [MPI98], 490 nM. In turn, `CC1(C)[C@@H]2[C@@H](C(=O)N[C@H](C=O)C[C@@H]3CCNC3=O)N(C(=O)[C@H](Cc3ccccc3)NC(=O)OCc3ccccc3)C[C@@H]21` [MPI99] gave an IC50 on SARS-CoV-2 M^Pro [3] of 270 nM. Moreover, the EC50 in test [2] is > 5000 nM. As to `CC1(C)[C@@H]2[C@@H](C(=O)N[C@H](C=O)C[C@@H]3CCNC3=O)N(C(=O)[C@H](CC3CCCCC3)NC(=O)OCc3ccccc3)C[C@@H]21` [MPI100], the EC50 in test [2] came to 140 nM.

`CC(C)(C)C[C@H](NC(=O)OCc1cccnc1)C(=O)N[C@H](C=O)C[C@@H]1CCNC1=O` [MPI101]: the IC50 against SARS-CoV-2 M^Pro [3] amounted to 20 nM. For the same compound, in test [2], the EC50 is > 5000 nM. At SARS-CoV-2 M^Pro [3], `CC1(C)[C@@H]2[C@@H](C(=O)N[C@H](C=O)C[C@@H]3CCNC3=O)N(C(=O)OCc3cccnc3)C[C@@H]21` [MPI102] came in with an IC50 of 28 nM. In addition, the EC50 in test [2] is > 5000 nM.

As for `CC1(C)[C@@H]2[C@@H](C(=O)N[C@H](C#N)C[C@@H]3CCNC3=O)N(C(=O)OCc3cccnc3)C[C@@H]21` [MPI103], the IC50 at SARS-CoV-2 M^Pro [3] was found to be 28 nM. Moreover, the EC50 in test [2] was > 5000 nM. On the same counts, the results for `CC(C)(C)C[C@H](NC(=O)[C@@H]1CC[C@@H]1c1ccccc1)C(=O)N[C@H](C=O)C[C@@H]1CCNC1=O` [MPI104] are 79 nM and > 5000 nM. Consider `CC(C)(C)C[C@H](NC(=O)N1CC[C@@H]1c1ccccc1)C(=O)N[C@H](C=O)C[C@@H]1CCNC1=O` [MPI105], for which, on SARS-CoV-2 M^Pro [3], half-maximal inhibition (IC50) was put at 39 nM. Moreover, in test [2], the EC50 is > 5000 nM.

As to `CC1(C)[C@@H]2[C@@H](C(=O)N[C@H](C#N)C[C@@H]3CCNC3=O)N(C(=O)[C@@H](NC(=O)C(F)(F)F)c3ccc(Cl)cc3)C[C@@H]21` [MPI106], the EC50 in test [2] is > 5000 nM. Same read-out and setting: as for `CC1(C)[C@@H]2[C@@H](C(=O)N[C@H](C#N)C[C@@H]3CCNC3=O)N(C(=O)[C@@H](NC(=O)C(F)(F)F)c3ccc(Cl)c(Cl)c3)C[C@@H]21` [MPI108], the figure is > 5000 nM.

The values are drawn from publication PMC11181478, “SARS-CoV-2 Main Protease Inhibitors That Leverage Unique Interactions with the Solvent Exposed S3 Site of the Enzyme” (ACS Medicinal Chemistry Letters, 2024).
